The results in this text go back to PubChem BioAssay (NCI).

What all share (assay): NCI anticancer screen, dose series, 48 h
For assay [1], the system named is SK-OV-3 ovarian.
Assay [2] deals with RXF 393 renal.
Assay [3] deals with ACHN renal.
Assay [4] concerns HCC-2998 colon.
For assay [5], the system named is NCI-H522 lung.
Assay [6] deals with RPMI-8226 leukemia.
Assay [7] deals with KM12 colon.
Assay [8] has as its system A498 renal.
For assay [9], the system named is SN12C renal.
The subject of assay [10] is OVCAR-4 ovarian.

SMILES strings stand for the structures.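 Each compound was tested at five concentrations against cells in 96-well plates for 48 hours. GI50 is the concentration that inhibits growth by half. TGI: total growth inhibition.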

As for `Fc1ccc(C2SCc3nc4ccccc4n32)c(F)c1` (stereo not drawn), the TGI in assay [1], in assay [2], in [3], in [4], in assay [5] and in assay [6] was more than 100 µM throughout. Further, the TGI in assay [7], in assay [8], in [9] and in [10] was more than 100 µM each time.
As for `FC(F)(F)c1ccc(-c2cnc(-c3ncon3)nc2NC2CCCCCC2)cc1`, the GI50 in [1] is more than 100 µM; in assay [2], 28.9 µM; in [3], 48.6 µM; in assay [4] it was 56.6 µM; in [5], 14.2 µM; in assay [6], 18.4 µM. For the same compound, the GI50 in assay [7] is 36.3 µM; in [8], 42.9 µM; in [9], 21.4 µM; in assay [10] it was 37.2 µM. Moreover, the TGI in assay [1] is more than 100 µM; in [2], more than 100 µM; in [3], more than 100 µM; in [4] it was more than 100 µM; in assay [5] it was 82.6 µM; in assay [6] it was 49.3 µM. Further, the TGI in [7] is more than 100 µM; in assay [8], more than 100 µM; in assay [9] it was 63 µM; in assay [10], more than 100 µM.
With `N#Cc1c(N2CCOCC2)nc(=S)[nH]c1-c1ccco1`, the GI50 in assay [1] was 2.72 µM; in assay [2] it was 12.9 µM; in assay [3] it was 5.75 µM; in assay [4] it was 25.5 µM; in assay [5] it was 3.95 µM; in [6], 1.58 µM. In addition, the GI50 in assay [7] was 10.4 µM; in [8], 1.19 µM; in assay [9] it was 4.46 µM; in assay [10], 16.9 µM. Also, the TGI in [1] is 14.7 µM; in assay [2] it was more than 100 µM; in [3], more than 100 µM; in [4], more than 100 µM; in assay [5], more than 100 µM; in assay [6] it was 16.4 µM. Also, the TGI is more than 100 µM in [7], 7.23 µM in assay [8], more than 100 µM in assay [9] and more than 100 µM in [10].
As for `CCCN(CCS(C)(=O)=O)Cc1ccc(-c2ccc3ncnc(Nc4ccc(OCc5cccc(F)c5)c(Cl)c4)c3c2)o1`, the GI50 is 0.0197 µM in assay [1]; 24.9 µM in assay [2]; 1.23 µM in assay [3]; more than 25 µM in assay [4]; 0.525 µM in assay [5]; more than 20.8 µM in assay [6]. Moreover, the GI50 is more than 25 µM in assay [7], more than 13.6 µM in [8], more than 25 µM in assay [9] and 21.3 µM in [10]. The TGI in assay [1] was 0.192 µM; in [2], more than 25 µM; in [3], more than 25 µM; in assay [4], more than 25 µM; in [5], more than 25 µM; in [6], more than 25 µM. Also, the TGI in assay [7], in [8], in [9] and in [10] was more than 25 µM throughout.
`O=C(OCc1ccc2ccccc2n1)c1cn(C2CC2)c2cc(N3CCN(Cc4ccc5ccccc5n4)CC3)c(F)cc2c1=O`: the GI50 in [1] was more than 80.7 µM; in assay [2], 63.6 µM; in assay [3] it was more than 72.4 µM; in assay [4] it was 34 µM; in [5] it was more than 94.3 µM; in [6], more than 36.3 µM. The GI50 is 41.6 µM in [7], 25.2 µM in assay [8], more than 100 µM in assay [9] and more than 100 µM in assay [10]. Also, the TGI in assay [1] was more than 100 µM; in assay [2] it was more than 100 µM; in assay [3], more than 100 µM; in [4], more than 100 µM; in assay [5], more than 100 µM; in assay [6], more than 64.2 µM. The TGI in [7] is more than 100 µM; in [8], more than 82.1 µM; in [9], more than 100 µM; in [10], more than 100 µM.
Regarding `COc1ccc2c(c1)N(CCO)C1=C(C(=O)OC1)C2c1cccc(F)c1` (stereo not drawn), the GI50 in [1] was 1.26 µM; in assay [2] it was 0.555 µM; in assay [3], 0.386 µM; in assay [4] it was 1.07 µM; in assay [5], 0.118 µM; in assay [6], 0.629 µM. Moreover, the GI50 in [7] was 0.255 µM; in assay [8], 0.157 µM; in assay [9], 0.776 µM; in [10], 1.83 µM. Moreover, the TGI was more than 50 µM in [1]; more than 50 µM in assay [2]; more than 50 µM in assay [3]; more than 50 µM in assay [4]; 1.08 µM in assay [5]; more than 50 µM in [6]. Besides, the TGI is more than 50 µM in assay [7], 2.12 µM in [8], more than 50 µM in [9] and more than 50 µM in [10].
`CCCCCCCCCCCCCCCCCC1=NCCN1CCOC1=C(Cl)C(=O)c2ccccc2C1=O`: the GI50 in [1] was 1.93 µM; in assay [2] it was 1.79 µM; in assay [3] it was 1.58 µM; in [4], 3.51 µM; in [5], 1.79 µM; in [6] it was 2.17 µM. In addition, the GI50 is 1.91 µM in assay [7], 3.92 µM in assay [8] and 3.18 µM in [9]. Further, the TGI in assay [1] was 5.11 µM; in assay [2] it was 3.2 µM; in assay [3], 3.01 µM; in assay [4], 12.3 µM; in assay [5] it was 3.38 µM; in assay [6], 5.28 µM. Further, the TGI in assay [7] amounted to 3.61 µM; in assay [8], 14.7 µM; in assay [9] it was 9.47 µM.
Take `O=C(O)c1ccc(C(=O)c2ccccc2)c(C(=O)O)c1`: the TGI in assay [1], in assay [2], in assay [3], in assay [4], in [5] and in [6] was more than 100 µM throughout. Further, the TGI in assay [7], in [8], in [9] and in [10] was more than 100 µM each time.
